A word on the IC50: it is the midpoint of a concentration-inhibition curve. Read a low IC50 as higher potency.

Consider 22 compounds from patent publication US20250026753A1, “FUSED TRIAZINONE DERIVATIVES AND METHODS OF USING THE SAME” (Rgenta Therapeutics, Inc., priority 2021, published 2025).

Test [1] concerns K562. As to the kind of experiment: Cell proliferation assay (CellTiterGlo, 72 hour incubation), K562. It is filed as cell-based. Particulars: Homo sapiens, K562 cells, inhibition of cell proliferation, CellTiterGlo luminescence. Here is the method: (§1) Various cancer cell lines including K562 and COLO201, were treated with the compounds of the present disclosure to assess their effect on inhibiting cell proliferation.
(§2) For compound preparation, test compounds were diluted in duplicates from 10 mM stocks in 11-points 1:3 serial dilutions in DMSO. Then 125 nL test compounds at the serial dilutions were dispensed into 384-well assay plate using Echo dispenser. Staurosporine at 1 mM stock (5 μM final concentration) and DMSO (0.500 final concentration) were used as the positive and negative controls respectively.
(§3) To prepare cell lines, each frozen cell line stock was resuspended and grown in proper growth medium to a density of 40,000 cells/mL. Then 25 μL of cell suspension were dispensed into the assay plate to give seed cell density at 1,000 cells/well, compounds at 50 μM top concentration with 11-point serial dilutions, and 0.5% o DMSO final concentration. Assay plates were then centrifuged at 300 rpm for 1 minute and then incubated at 37° C., 9500 humidity, 500 CO2 for 72 hours. After the 72 hour incubation, the assay plate and its contents were equilibrated at room temperature for approximately 30 minutes. 25 μL of CellTiterGlo reagent was added to the assay plate and mixed for two minutes on an orbital shaker. Then after 10 minutes of incubation of assay plate at from temperature, the luminescence (RLU) signals in each well were recorded using Envision plate reader, then converted to percentage inhibition values using the signals in staurosporine and DMSO treated wells as the references. IC50 values were determined by curve fitting in Levenberg-Marquardt algorithm.
A general note: In ATP-based viability assays light output follows the ATP content of the culture.

For test [2], the system named is COLO201. The experiment in a line: Cell proliferation assay (CellTiterGlo, 72 hour incubation), COLO201. Format: cell-based. Conditions: Homo sapiens, COLO 201, COLO201 cells, inhibition of cell proliferation, CellTiterGlo luminescence. Here is the method:
as §1, §2, §3

Where a name gives a salt, the structure may show the parent alone.

On to `Cc1cn2cc(-c3nc(=O)n4cc(N5CCNCC5)ccc4n3)cc(F)c2n1` [Compound 99, 2-{8-fluoro-2-methylimidazo[1,2-a]pyridin-6-yl}-7-(piperazin-1-yl)-4H-pyrido[1,2-a][1,3,5]triazin-4-one], for which the 50% inhibitory concentration (IC50) in test [1] was < 1 µM.

`Cc1cn2cc(-c3nc(=O)n4cc(N5CCNCC5)ccc4n3)cc(F)c2n1` [Compound 100, 2-(8-fluoro-2-methylimidazo[1,2-a]pyridin-6-yl)-7-(piperazin-1-yl)-4H-pyrido[1,2-a][1,3,5]triazin-4-one hydrochloride]: the half-inhibitory concentration (IC50) in test [2] is < 1 µM.

Regarding `Cc1cn2cc(-c3nc(=O)n4cc(N5CCN[C@@H](C)C5)ccc4n3)cc(F)c2n1` [Compound 101], the IC50 in test [2] and in test [1] was < 1 µM each time.

For `Cc1cn2cc(-c3nc(=O)n4cc(N5CCN[C@H](C)C5)ccc4n3)cc(F)c2n1` [Compound 102, (R)-2-(8-fluoro-2-methylimidazo[1,2-a]pyridin-6-yl)-7-(3-methylpiperazin-1-yl)-4H-pyrido[1,2-a][1,3,5]triazin-4-one formic acid], the values for the half-inhibitory concentration (IC50) in test [2] and in test [1] were 1 to 10 µM and < 1 µM, respectively.

Take `Cc1cn2cc(-c3nc(=O)n4cc(N5CCN(C)CC5)ccc4n3)cc(F)c2n1` [Compound 103, 2-(8-fluoro-2-methylimidazo[1,2-a]pyridin-6-yl)-7-(4-methylpiperazin-1-yl)-4H-pyrido[1,2-a][1,3,5]triazin-4-one]: the concentration for half-maximal inhibition (IC50) in test [2] and in test [1] was 1 to 10 µM each time.

On to `Cc1cn2cc(-c3nc(=O)n4cc(N5CCCNCC5)ccc4n3)cc(F)c2n1` [Compound 104, 7-(1,4-diazepan-1-yl)-2-(8-fluoro-2-methylimidazo[1,2-a]pyridin-6-yl)-4H-pyrido[1,2-a][1,3,5]triazin-4-one hydrochloride], for which the IC50 in test [2] and in test [1] was ≥ 10 µM in each case.

With `Cc1cn2cc(-c3nc(=O)n4cc(N5CC6CCC(C5)N6)ccc4n3)cc(F)c2n1` [Compound 105, 7-(3,8-diazabicyclo[3.2.1]octan-3-yl)-2-(8-fluoro-2-methylimidazo[1,2-a]pyridin-6-yl)-4H-pyrido[1,2-a][1,3,5]triazin-4-one hydrochloride], the 50% inhibitory concentration (IC50) in test [2] and in test [1] was ≥ 10 µM throughout.

Turning to `Cc1cn2cc(-c3nc(=O)n4cc(N5CC6CNCC6C5)ccc4n3)cc(F)c2n1` (stereo not shown) [Compound 106, 2-(8-fluoro-2-methylimidazo[1,2-a]pyridin-6-yl)-7-(hexahydropyrrolo[3,4-c]pyrrol-2(1H)-yl)-4H-pyrido[1,2-a][1,3,5]triazin-4-one hydrochloride], the half-inhibitory concentration (IC50) in test [2] and in test [1] was ≥ 10 µM throughout.

Consider `Cc1cn2cc(-c3nc(=O)n4cc(N5C[C@@H](C)N[C@@H](C)C5)ccc4n3)cc(F)c2n1` [Compound 107, 7-((3S,5R)-3,5-dimethylpiperazin-1-yl)-2-(8-fluoro-2-methylimidazo[1,2-a]pyridin-6-yl)-4H-pyrido[1,2-a][1,3,5]triazin-4-one hydrochloride], for which the IC50 in test [2] and in test [1] was < 1 µM in each case.

For `Cc1cn2cc(-c3nc(=O)n4cc(N5CCNCC5)cc(C)c4n3)cc(F)c2n1` [Compound 108, 2-(8-fluoro-2-methylimidazo[1,2-a]pyridin-6-yl)-9-methyl-7-(piperazin-1-yl)-4H-pyrido[1,2-a][1,3,5]triazin-4-one hydrochloride], the 50% inhibitory concentration (IC50) in test [2] was < 1 µM; in test [1] it was 1 to 10 µM.

For the compound `Cc1cn2cc(-c3nc(=O)n4cc(N5CCNC(C)(C)C5)ccc4n3)cc(F)c2n1` [Compound 109, 7-(3,3-dimethylpiperazin-1-yl)-2-(8-fluoro-2-methylimidazo [1,2-a]pyridin-6-yl)-4H-pyrido[1,2-a][1,3,5]triazin-4-one], the 50% inhibitory concentration (IC50) in test [2] and in test [1] was < 1 µM each time.

With `Cc1cn2cc(-c3nc(=O)n4cc(C5CCNC5)ccc4n3)cc(F)c2n1` (stereo not shown) [Compound 112, 2-(8-fluoro-2-methylimidazo[1,2-a]pyridin-6-yl)-7-(pyrrolidin-3-yl)-4H-pyrido[1,2-a][1,3,5]triazin-4-one hydrochloride], in test [1], the 50% inhibitory concentration (IC50) was in the range of 1 to 10 µM.

In the case of `Cc1cn2cc(-c3nc(=O)n4cc(N5CCN[C@@H](C)C5)cc(C)c4n3)cc(C)c2n1` [Compound 123, (S)-2-(2,8-dimethylimidazo[1,2-a]pyridin-6-yl)-9-methyl-7-(3-methylpiperazin-1-yl)-4H-pyrido[1,2-a][1,3,5]triazin-4-one hydrochloride], the half-inhibitory concentration (IC50) in test [1] lay within 1 to 10 µM.

In test [1], `Cc1cn2cc(-c3nc(=O)n4cc(N5CCN(C)[C@@H](C)C5)cc(C)c4n3)cc(F)c2n1` [Compound 124, (S)-7-(3,4-dimethylpiperazin-1-yl)-2-(8-fluoro-2-methylimidazo[1,2-a]pyridin-6-yl)-9-methyl-4H-pyrido[1,2-a][1,3,5]triazin-4-one] came in with an IC50 of 1 to 10 µM.

In turn, `Cc1cn2cc(-c3nc(=O)n4cc(N5CCNC(C)(C)C5)cc(C)c4n3)cc(F)c2n1` [Compound 125, 7-(3,3-dimethylpiperazin-1-yl)-2-(8-fluoro-2-methylimidazo [1,2-a]pyridin-6-yl)-9-methyl-4H-pyrido[1,2-a][1,3,5]triazin-4-one hydrochloride] showed an IC50 in test [1] of 1 to 10 µM.

In test [1], `Cc1cn2cc(-c3nc(=O)n4cc(N5CCNCC5)ccc4n3)cc(C)c2n1` [Compound 126, 2-2,8-dimethylimidazo[1,2-a]pyridin-6-yl-7-(piperazin-1-yl)-4H-pyrido[1,2-a][1,3,5]triazin-4-one hydrochloride] came in with a half-maximal inhibitory concentration (IC50) of 1 to 10 µM.

In the case of `CC[C@H]1CN(c2cc(F)c3nc(-c4cc(F)c5nc(C)cn5c4)nc(=O)n3c2)CCN1` [Compound 128, 7-[(3S)-3-ethylpiperazin-1-yl]-9-fluoro-2-{8-fluoro-2-methylimidazo[1,2-a]pyridin-6-yl}-4H-pyrido[1,2-a][1,3,5]triazin-4-one], the IC50 in test [1] was < 1 µM.

For the compound `Cc1cc2cc(-c3nc(=O)n4cc(N5CCN[C@@H](C)C5)cc(C)c4n3)cc(C)n2n1` [Compound 129, 2-{2,7-dimethylpyrazolo[1,5-a]pyridin-5-yl}-9-methyl-7-[(3S)-3-methylpiperazin-1-yl]-4H-pyrido[1,2-a][1,3,5]triazin-4-one], the IC50 in test [1] lay within 1 to 10 µM.

Take `Cc1cn2cc(-c3nc(=O)n4cc(N5CCNC(C)(C)C5)cc(F)c4n3)cc(F)c2n1` [Compound 130, 7-(3,3-dimethylpiperazin-1-yl)-9-fluoro-2-{8-fluoro-2-methylimidazo[1,2-a]pyridin-6-yl}-4H-pyrido[1,2-a][1,3,5]triazin-4-one]: the IC50 in test [1] was < 1 µM.

`Cc1cn2cc(-c3nc(=O)n4cc(N5CCNC6(CC6)C5)cc(C)c4n3)cc(F)c2n1` [Compound 132, 7-{4,7-diazaspiro[2.5]octan-7-yl}-2-{8-fluoro-2-methylimidazo[1,2-a]pyridin-6-yl}-9-methyl-4H-pyrido[1,2-a][1,3,5]triazin-4-one] displayed a half-inhibitory concentration (IC50) in test [1] of 1 to 10 µM.

As for `Cc1cc2cc(-c3nc(=O)n4cc(N5CCN[C@@H](C)C5)ccc4n3)cc(C)n2n1` [Compound 134, (S)-2-(2,7-dimethylpyrazolo[1,5-a]pyridin-5-yl)-7-(3-methylpiperazin-1-yl)-4H-pyrido[1,2-a][1,3,5]triazin-4-one], the 50% inhibitory concentration (IC50) in test [1] lay in the range of 1 to 10 µM.

For `Cc1cc2cc(-c3nc(=O)n4cc(N5CCNC(C)(C)C5)cc(F)c4n3)cc(C)n2n1` [Compound 135, 7-(3,3-dimethylpiperazin-1-yl)-2-(2,7-dimethylpyrazolo[1,5-a]pyridin-5-yl)-9-fluoro-4H-pyrido[1,2-a][1,3,5]triazin-4-one], in test [1], the IC50 was in the range of 1 to 10 µM.
